These results are taken from PMC9499324, “Glycyrrhizic Acid Derivatives Bearing Amino Acid Residues in the Carbohydrate Part as Dengue Virus E Protein Inhibitors: Synthesis and Antiviral Activity” (International Journal of Molecular Sciences, 2022).

The subject of test [1] is DENV2. As to the kind of experiment: Time-of-addition/compound removal assay with DENV2 in Vero E6 cells. In kind it is cell-based, Dengue virus type 2. The following applies: for IC50: Dengue virus, Vero C1008, attachment mode, 4 °C, DENV2, Vero E6 cells; for Stage of DENV2 replication affected (attachment, entry, post-entry modes): time-of-addition/removal, Vero E6 cells. The method, then:
Figure 5 Time-of-addition and removal assay for analyzing antiviral action of compounds 3 (A), 6 (B), 11 (C), and 21 (D) in Vero E6 cells. In the attachment mode, cells were pre-cooled and incubated with fresh-prepared mixtures of active compounds with DENV2 at 4 °C for 1 h. After the removal of the mixtures, the cells were kept at 37 °C for 96 h (a cycle of viral replication) and then were performed by immunofluorescent assay plus DAPI staining. In entry and post-entry modes, cells were infected with DENV2 and treated with the compounds simultaneously (the entry stage) or 1-h post-infection (post-entry stage). After a 1 h incubation period, the virus/compound mixture was removed; the cell monolayer was washed with PBS and cultured for 96 h and then subjected to immunofluorescence staining and DAPI. Finally, the inhibition percentage of DENV2 infectivity was calculated as follows: 1-(percentage of NS4B positivity in treated cells/percentage of NS4B positivity in mock-treated cells). *** p < 0.001 compared with the other two antiviral action modes.
The time-of-addition assays consisted of three modes including attachment treatment/removal, entry-treatment/removal, and post-entry treatment/removal modes. In the attachment-treatment/removal mode, Vero E6 cells monolayer in 6-well plate was placed at 4 °C for 2 h and incubated with the fresh-prepared mixture of DENV-2 (MOI = 0.005) with the active compound at indicated concentrations for 2 h at 4 °C, and then washed with phosphate-buffered saline (PBS). In the entry-treatment/removal mode, Vero E6 cells were simultaneously treated with the active compound and infected DENV-2 (MOI = 0.005) in 6-well plates, incubated for 1 h at 37 °C, and then washed with PBS. In the post-entry treatment/removal mode, the cells were infected with DENV-2 for 1 h at 37 °C, treated with the active compounds at indicated concentrations for 1 h at 37 °C, respectively, and then washed by PBS. After active compound removal (washout), the cells were incubated at 37 °C for 96 h, and then were analyzed by immunofluorescent and DAPI staining assay for determining the residual DENV-2 infectivity, as described above. The inhibitory activity of the transient treatment by active compounds on attachment, entry, and post-entry stages of DENV replication in vitro was determined based on the residual infectivity.

The subject of test [2] is DENV2. In words: DENV2 infectivity inhibition (anti-NS4B immunofluorescence) in Vero E6 cells. Format: cell-based, Dengue virus type 2. The conditions noted are these: Dengue virus; for inhibition at 10 µM: Vero C1008, 10 μM compound, DENV2, Vero E6 cells, 96 h, read-out: Inhibition (%) at 10 μM (reduction of NS4B-positive cells). The text has this: (§1) […] In CPE and infectivity reduction assays, […], and then photographed by microscope for examining the levels of DENV2-induced CPE in infected cells treated with or without GL conjugate. Meanwhile, the cells were further performed using immunofluorescence assay (IFA) with anti-DENV NS4B antibodies (GeneTex, Inc., Hsinchu, Taiwan) and anti-rabbit IgG antibodies conjugated with AF555 (ThermoFisher, Waltham, MA, USA) plus DAPI (4′,6-diamidino-2-phenylindole) nuclear staining. Finally, the DENV-2 infectivity was measured according to the ratio of DENV NS4B-positive cells to DAPI-stained cells in the well of mock-treated or treated cells, as described in [45, 59, 60].

Test [3] relates to DENV2. In words: DENV2 infectivity inhibition (anti-NS4B immunofluorescence) in A549 cells. Format: cell-based, Dengue virus type 2. The following applies: Dengue virus.
The test system of test [4] is DENV2. As to the kind of experiment: DENV2-induced cytopathic effect (CPE) reduction screening in Vero E6 cells. In kind it is cell-based, Dengue virus type 2. The following applies: Dengue virus, Vero C1008; 10 μM compound, DENV2, Vero E6 cells, 96 h; read-out: CPE Reduction at 10 μM. As to the method:
(§2) In the antiviral screening assay, each tested GL conjugate at 10 μM was used to survey the anti-DENV activity in Vero E6 cells using cytopathic effect (CPE) and infectivity reduction assays as described in our prior report. In CPE and infectivity reduction assays, Vero E6 cells were infected by DENV2 at an MOI of 0.005 and simultaneously treated 10 μM of indicated GL conjugate for 96 h, and then photographed by microscope for examining the levels of DENV2-induced CPE in infected cells treated with or without GL conjugate. Meanwhile, the cells were further performed using immunofluorescence assay (IFA) with anti-DENV NS4B antibodies (GeneTex, Inc., Hsinchu, Taiwan) and anti-rabbit IgG antibodies conjugated with AF555 (ThermoFisher, Waltham, MA, USA) plus DAPI (4′,6-diamidino-2-phenylindole) nuclear staining. Finally, the DENV-2 infectivity was measured according to the ratio of DENV NS4B-positive cells to DAPI-stained cells in the well of mock-treated or treated cells, as described in [45, 59, 60].
On the technique in general: Cytopathic effects are the visible damage that an infection or toxin causes in cultured cells.

The test system of another test is DENV1. In words: DENV1 infectivity inhibition assay in Vero E6 cells. The following applies: Dengue virus, DENV1, Vero C1008, read-out: IC50 in the DENV1 infectivity inhibition assay. In kind it is cell-based. As to the method: as §2
Supplemental Figure S25. Infectivity inhbition of DENV1 in Vero E6 cells by active GL conjugates. Cells were infected with DENV1 in the presence and absence of Compounds 3, 6, 11, and 21 at the concentrations of 0.1, 1, and 10 μM, respectively. Treated/infected Vero E6 cells were also analyzed using immunofluorescence staining with anti-DENV2 NS4B antibodies.
Residual infectivity was discovered by the ratio of DENV2 NS4B positive cells to total cells stained with DAPI, and relative inhibition activity was determined based on full infectivity with the subtraction of its residual infectivity.
(1 picture or pasted object on this page, not shown here)

The next test concerns DENV1 and DENV2. As to the kind of experiment: DENV infectivity inhibition, summary over DENV1 and DENV2 in Vero E6 and A549 cells. Format: cell-based, Dengue virus. The conditions noted are these: read-out: IC50 in DENV infectivity (range over assays).
Text: as §1

Setting [5] is: Dengue virus, range over DENV1 and DENV2, Vero E6 and A549 cells.

SMILES strings stand for the structures. Where two headings read alike, the source gives them in different places.

As a reminder, the IC50 is the point on the concentration scale where inhibition reaches its midpoint. `COC(=O)[C@H](NC(=O)[C@H]1O[C@@H](O[C@H]2[C@H](OC3CC[C@@]4(C)C(CC[C@]5(C)C4C(=O)C=C4C6C[C@@](C)(C(=O)O)CC[C@]6(C)CC[C@]45C)C3(C)C)O[C@H](C(=O)N[C@@H](C(=O)OC)C(C)C)[C@@H](O)[C@@H]2O)[C@H](O)[C@@H](O)[C@@H]1O)C(C)C` (stereo partly drawn) [Compound 3, 3-O-{2-O-[N-(β-D-Glucopyranosyluronoyl)-D-valinemethyl ester]-N-(β-D-glucopyranosyluronoyl)-D-valinemethyl ester}-(3β, 20β)-11-oxo-30-noroleane-12-ene-30-oic Acid]: the IC50 in the test on DENV2 [1] is 1860 nM; with DENV2 [3] it was 120 ± 28 nM; in the test with DENV1, 2810 ± 540 nM; in the test on DENV1 and DENV2 (setting [5]), 100 to 5980 nM; in the test on DENV1 and DENV2, 120 to 2810 nM. In the test on DENV2 [1], the “Stage of DENV2 replication affected (attachment, entry, post-entry modes)” value is “mostly affected the virus binding stage to the cell surface in the attachment mode”. The inhibition at 10 µM with DENV2 [2] is 90.7%; with DENV2 [4], 75 to 100%.

In the case of `CCOC(=O)[C@H](Cc1ccccc1)NC(=O)[C@H]1O[C@@H](O[C@H]2[C@H](OC3CC[C@@]4(C)C(CC[C@]5(C)C4C(=O)C=C4C6C[C@@](C)(C(=O)O)CC[C@]6(C)CC[C@]45C)C3(C)C)O[C@H](C(=O)N[C@@H](Cc3ccccc3)C(=O)OCC)[C@@H](O)[C@@H]2O)[C@H](O)[C@@H](O)[C@@H]1O` (stereo partly drawn) [Compound 11, 3-O-{2-O-[N-(β-D-Glucopyranosyluronoyl)-L-phenylalanineethyl ester]-N-(β-D-Glucopyranosyluronoyl)-L-phenylalanineethyl ester}-(3β, 20β)-11-oxo-30-noroleane-12-ene-30-oic Acid], the IC50 was 180 nM in the test with DENV2 [1]; 0.17 to 0.5 µM in the test on DENV2 [2] (DENV2, Vero C1008, read-out: Inhibition of DENV2 Infectivity (IC50, μM), Vero E6 cells); 1560 ± 490 nM with DENV2 [3]; 1250 ± 167 nM in the test on DENV1; 100 to 5980 nM with DENV1 and DENV2 (setting [5]); 180 to 1560 nM in the test with DENV1 and DENV2. Besides, in the test with DENV2 [1], the “Stage of DENV2 replication affected (attachment, entry, post-entry modes)” value is reported as “mostly affected the virus binding stage to the cell surface in the attachment mode”. For the same molecule, the figures for the inhibition at 10 µM with DENV2 [2] and with DENV2 [4] were 91.3% and 75 to 100%, respectively.
